Read-outs that look alike come from different tables or passages of the source.
Key:
GFP-SmSERT-A [1] = target: T1, GFP-SmSERT-A (Schistosoma mansoni, UniProt Q3HL76); assay: cell-based; type: cell-based; settings: for potency difference versus SmSERTs as compared with hSERT (fold less potent at SmSERTs): SmSERTs (A and B) vs hSERT, from IC50 of Table 1
GFP-hSERT [2] = target: T2, GFP-hSERT (Homo sapiens, UniProt P31645); assay: Inhibition of [3H]-serotonin uptake in transfected COS-7 cells; type: cell-based
GFP-SmSERT-A [3] = target: T1, GFP-SmSERT-A; assay: [3H]-serotonin efflux experiment in COS-7 cells
GFP-hSERT [4] = target: T2, GFP-hSERT; type: cell-based
GFP-SmSERT-B [5] = target: T3, GFP-SmSERT-B (Schistosoma mansoni, UniProt Q3I1M7); assay: [3H]-serotonin efflux experiment in COS-7 cells
GFP-SmSERT-A [6] = target: T1, GFP-SmSERT-A; type: cell-based; settings: COS-7 cells
SmSERT-B = SmSERT-B (Schistosoma mansoni, UniProt Q3I1M7); type: cell-based; settings: for substrate-elicited transport-associated currents, SmSERT-B: voltage-clamped Xenopus oocytes
SmSERT-A = SmSERT-A (Schistosoma mansoni, UniProt Q3HL76); assay: Two-electrode voltage clamp of substrate-elicited currents in Xenopus oocytes; type: cell-based; settings: for substrate-elicited transport-associated currents, SmSERT-A: voltage-clamped Xenopus oocytes
S. mansoni adult worms = settings: ref Wood and Mansour, 1986, cited from earlier work
S. mansoni sporocysts [7] = settings: living sporocysts; ref Boyle et al., 2003; cited from earlier work
GFP-SmSERT-B [8] = target: T3, GFP-SmSERT-B; type: cell-based; settings: COS-7 cells
S. mansoni sporocysts [9] = settings: treatment of the sporocyst snail stage; ref Boyle and Yoshino, 2005; cited from earlier work
GFP-SmSERT-B [10] = target: T3, GFP-SmSERT-B; assay: cell-based
Schistosoma infections = settings: ref Gryseels et al., 2006; cited from earlier work
[11] = read-out: IC50 for serotonin transporter substrates, SmSERT-A
[12] = read-out: IC50 for serotonin transporter substrates, hSERT
[13] = Imax / (Vmax * Faraday constant), same batches of oocytes

T2 sequence (P31645 whole entry): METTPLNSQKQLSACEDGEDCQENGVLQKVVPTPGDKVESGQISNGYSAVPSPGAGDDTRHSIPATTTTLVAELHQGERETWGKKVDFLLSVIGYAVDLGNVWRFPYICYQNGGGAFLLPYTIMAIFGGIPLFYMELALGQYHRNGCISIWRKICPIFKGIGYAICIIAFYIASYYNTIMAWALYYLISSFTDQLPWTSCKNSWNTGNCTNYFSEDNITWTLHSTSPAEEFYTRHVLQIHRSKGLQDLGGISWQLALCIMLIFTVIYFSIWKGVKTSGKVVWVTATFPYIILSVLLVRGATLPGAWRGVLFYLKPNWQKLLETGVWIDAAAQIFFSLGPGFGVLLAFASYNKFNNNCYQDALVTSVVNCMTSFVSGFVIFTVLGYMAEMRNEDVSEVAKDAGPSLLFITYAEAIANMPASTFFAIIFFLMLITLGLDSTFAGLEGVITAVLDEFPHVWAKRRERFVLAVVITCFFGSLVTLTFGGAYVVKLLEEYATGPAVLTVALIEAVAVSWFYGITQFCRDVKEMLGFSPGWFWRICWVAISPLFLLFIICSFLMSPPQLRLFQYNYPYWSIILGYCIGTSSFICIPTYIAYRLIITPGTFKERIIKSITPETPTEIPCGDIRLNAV

SMILES: CNC(C)Cc1ccc2c(c1)OCO2 (racemic) [(±)MDMA]
- IC50 (GFP-SmSERT-A [1]; [11]): 320000 ± 162000 nM
- IC50 (GFP-hSERT [2]; [12]): 2700 ± 500 nM
- [3H]-serotonin efflux elicited by compound, SmSERT-A (GFP-SmSERT-A [3]): not transported
- [3H]-serotonin efflux elicited by compound, hSERT (GFP-hSERT [4]): able to elicit serotonin efflux
- [3H]-serotonin efflux elicited by compound, SmSERT-B (GFP-SmSERT-B [5]): not transported

SMILES: NCCc1c[nH]c2ccc(O)cc12 [serotonin, 5-hydroxytryptamine]
- transport of tritiated substrate by SmSERT-A (GFP-SmSERT-A [6]; data not shown): transport
- Vmax of serotonin uptake, SmSERT-A (GFP-SmSERT-A [6]; mean ± SD of three experiments): 1.8 ± 1.4 pmol/min
- Km (GFP-SmSERT-A [6]; read-out: apparent affinity (KT / KM) for serotonin uptake, SmSERT-A, 10 min, room temperature, mean ± SD of three experiments): 2.3 ± 0.9 µM
- charges moved per serotonin molecule transported (Q/Jmax), SmSERT-B (SmSERT-B; [13]): 1.9 charges
- substrate-elicited transport-associated currents, SmSERT-B (SmSERT-B): concentration-dependent inward currents
- charges moved per serotonin molecule transported (Q/Jmax), SmSERT-A (SmSERT-A; [13]): 1.9 charges
- substrate-elicited transport-associated currents, SmSERT-A (SmSERT-A): concentration-dependent inward currents
- apparent affinity for serotonin uptake, adult female worms (S. mansoni adult worms; living adult female parasites): 1.46 µM
- apparent affinity for serotonin uptake, adult male worms (S. mansoni adult worms; living adult male parasites): 1.73 µM
- apparent affinity for serotonin uptake in sporocysts (S. mansoni sporocysts [7]): 1.4 µM
- transport of tritiated substrate by SmSERT-B (GFP-SmSERT-B [8]; data not shown): transport
- Vmax of serotonin uptake, SmSERT-B (GFP-SmSERT-B [8]; mean ± SD of three experiments): 1.4 ± 1.1 pmol/min
- Km (GFP-SmSERT-B [8]; read-out: apparent affinity (KT / KM) for serotonin uptake, SmSERT-B, 10 min, room temperature, mean ± SD of three experiments): 2.2 ± 1.1 µM

SMILES: C[C@H](N)Cc1ccccc1 [S(+)Amphetamine]
- IC50 (GFP-SmSERT-A [1]; [11]): 300000 ± 27000 nM
- [3H]-serotonin efflux elicited by compound, SmSERT-A (GFP-SmSERT-A [3]): not transported
- [3H]-serotonin efflux elicited by compound, SmSERT-B (GFP-SmSERT-B [5]): not transported

SMILES: CNCCC(Oc1ccc(C(F)(F)F)cc1)c1ccccc1 (centres unmarked) [Fluoxetine]
- production of daughter sporocysts (S. mansoni sporocysts [9]): prevents the production of daughter sporocysts

SMILES: COc1ccc2[nH]cc(C3=CCNCC3)c2c1 [RU 24969]
- IC50 (GFP-SmSERT-B [10]): 165000 ± 65000 nM
- IC50 (GFP-SmSERT-A [1]): 180000 ± 63000 nM
- IC50 (GFP-hSERT [2]): 8500 ± 900 nM
- [3H]-serotonin efflux elicited by compound, hSERT (GFP-hSERT [4]): able to elicit serotonin efflux

SMILES: CSc1ccc2c(c1)C(N1CCN(C)CC1)Cc1ccccc1S2 (centres unmarked) [Methiothepin]
- IC50 (GFP-SmSERT-B [10]): 2200 ± 700 nM
- IC50 (GFP-SmSERT-A [1]): 1900 ± 700 nM
- IC50 (GFP-hSERT [2]): 6700 ± 4100 nM

SMILES: NCCc1c[nH]c2ccccc12 [Tryptamine]
- substrate-elicited transport-associated currents, SmSERT-B (SmSERT-B): elicits clear transport associated currents
- substrate-elicited transport-associated currents, SmSERT-A (SmSERT-A): elicits clear transport associated currents
- IC50 (GFP-SmSERT-B [10]): 19300 ± 4400 nM
- IC50 (GFP-SmSERT-A [1]): 19600 ± 3600 nM
- IC50 (GFP-hSERT [2]): 1400 ± 100 nM
- [3H]-serotonin efflux elicited by compound, hSERT (GFP-hSERT [4]): able to elicit serotonin efflux

SMILES: O=C(C1CCCCC1)N1CC(=O)N2CCc3ccccc3C2C1 (centres unmarked) [praziquantel]
- activity on immature worms and eggs (Schistosoma infections): not active on immature worms and eggs

SMILES: O=[N+]([O-])c1ccc2nc(N3CCNCC3)ccc2c1 [6-Nitroquipazine]
- IC50 (GFP-SmSERT-B [10]): 4 ± 2 nM
- IC50 (GFP-SmSERT-A [1]): 4 ± 2 nM
- potency difference versus SmSERTs as compared with hSERT (fold less potent at SmSERTs) (GFP-SmSERT-A [1]): two-fold
- IC50 (GFP-hSERT [2]): 2 ± 0.4 nM

SMILES: COC(=O)[C@H]1C(c2ccc(I)cc2)C[C@@H]2CC[C@H]1N2C (some centres unmarked) [RTI-55]
- IC50 (GFP-SmSERT-B [10]; read-out: IC50 for inhibiting serotonin uptake, SmSERT-B, COS-7 cells, 100 nM [3H]serotonin, 10 min, mean ± SD): 600 ± 400 nM
- potency difference versus SmSERTs as compared with hSERT (fold less potent at SmSERTs) (GFP-SmSERT-A [1]): 60 fold
- IC50 (GFP-SmSERT-A [1]; read-out: IC50 for inhibiting serotonin uptake, SmSERT-A): 600 ± 400 nM
- IC50 (GFP-hSERT [2]; read-out: IC50 for inhibiting serotonin uptake, hSERT): 10 ± 10 nM

SMILES: COC(=O)[C@H]1[C@@H](OC(=O)c2ccccc2)C[C@@H]2CC[C@H]1N2C [Cocaine]
- IC50 (GFP-SmSERT-B [10]): 35400 ± 7600 nM
- IC50 (GFP-SmSERT-A [1]): 37600 ± 16000 nM

SMILES: Cl.Cl.Clc1cccc(N2CCNCC2)c1 [m-CPP, m-1-(3-Chlorophenyl)piperazine dihydrochloride]
- IC50 (GFP-SmSERT-A [1]; [11]): 58000 ± 4000 nM
- IC50 (GFP-hSERT [2]; [12]): 1800 ± 300 nM
- [3H]-serotonin efflux elicited by compound, SmSERT-A (GFP-SmSERT-A [3]): not transported
- [3H]-serotonin efflux elicited by compound, hSERT (GFP-hSERT [4]): able to elicit serotonin efflux
- [3H]-serotonin efflux elicited by compound, SmSERT-B (GFP-SmSERT-B [5]): not transported

SMILES: CN(C)CCCN1c2ccccc2CCc2ccccc21 [Imipramine]
- IC50 (GFP-SmSERT-B [10]): 300 ± 200 nM
- IC50 (GFP-SmSERT-A [1]): 300 ± 100 nM

— publication PMC2746412 (European journal of pharmacology, 2009)
